According to ChEMBL document CHEMBL3507680, “University of Dundee, Gates Library screen for HepG2 cell viability”:

experiment: Human HepG2 cell viability assay in 384 well format; format: toxicity, cell-based; design: dose 125 nL, time 70.5 hour; concentration not given beside the values; settings: HepG2 cells, read-out: Inhibition

Row | SMILES | cytotoxicity at 70.5 h
1 | Cn1cncc1C(=O)N1CCOC2(COCCN(CC3CC3)C2)C1 (stereo not drawn) | -1.4%
2 | CC(C)(C)NC(=O)c1ccc(COCC(F)(F)F)o1 | -4.89%
3 | CC(C)c1nc(C2CCCN(C(=O)c3ccc4[nH]cnc4c3)C2)no1 (stereo not drawn) | -18.2%
4 | N#Cc1cccnc1N1CCCC(CO)(Cc2ccc(F)cc2)C1 (stereo not drawn) | -5.86%
5 | CCc1ncc(CN2C[C@@H]3C[C@@H](O)CN3C[C@@H]2Cc2ccccc2)cn1 | -5.41%
6 | COc1ccccc1CC1CCN(C(=O)CCc2ccccn2)CC1 | -8.07%
7 | Nc1nccnc1C1CN(C(=O)c2ccc3c(c2)OCO3)CCO1 (stereo not drawn) | -13.9%
8 | COc1ccc(CN[C@H]2CC[C@@]3(CCC(=O)N3)CC2)cc1 | -6.23%
9 | C[C@@H]1CN(C2CCN(c3ccccc3F)CC2)CC[C@]1(C)O | -5.09%
10 | Cn1ccnc1CNC(=O)N(CCCO)C1CCc2ccccc21 (stereo not drawn) | -4.97%
11 | CCn1cc(S(=O)(=O)NC(CO)Cc2c[nH]c3ccccc23)cn1 (stereo not drawn) | -7.79%
12 | CCC(C)(N)c1nc(C(C)C)cc(=O)[nH]1 (stereo not drawn) | -4.71%
13 | Cc1[nH]c(-c2ccccc2)nc1C(=O)N1CC[C@H](CO)[C@@H](O)C1 | 23.4%
14 | Cc1cccc(CN2CCO[C@H]3[C@H](Oc4ccccn4)CC[C@@H]32)n1 | -1.62%
15 | CCC(C)N(Cc1sccc1C)C(=O)c1cc(N)ccn1 (stereo not drawn) | -11.9%
16 | COc1cccc(OC2CN(C(=O)c3ccoc3C)C2)c1 | 10.7%
17 | Cc1ccccc1NC(=O)N1CCN(Cc2noc(C3CC3)n2)CC1 | 1.73%
18 | COc1ccc(C)cc1CN(C)CC(=O)NC1(C)CCS(=O)(=O)C1 (stereo not drawn) | -15.5%
19 | O=C1CC2(CCN(c3nncs3)C2)CN1c1cccc(F)c1 (stereo not drawn) | -3.52%
20 | CC(O)c1cccc(N2CCC3(CC2)Nc2ccccc2NC3=O)n1 (stereo not drawn) | 21.3%
21 | Cc1cnn(CC2CCCCN2c2ncnc3ccccc23)c1 (stereo not drawn) | -5.59%
22 | Cn1c(C2CC2)nc2cc(NC(=O)C3CCOC3)ccc21 (stereo not drawn) | -4.07%
23 | CC(C)(C(=O)O)S(=O)(=O)c1ccc(Br)cc1 | 0.0653%

Row | SMILES | cytotoxicity at 70.5 h
24 | CC(NC(=O)CCCOc1ccccc1Cl)c1ccncc1 (stereo not drawn) | 13.5%
25 | NC(=O)c1ccc(OCC(=O)N2CCCC2c2ccc[nH]2)cc1 (stereo not drawn) | 42.3%
26 | O=C1CCCN1CC1CN(CC2CCOCC2)Cc2nccn2C1 (stereo not drawn) | -2.55%
27 | CN(C)CCOCc1nnc2n1CCN(c1cnccn1)CC2 | 12.4%
28 | Cc1cc(C[C@@H]2CCC[C@H]2NCc2ccccc2C(F)(F)F)on1 | -17.3%
29 | CC(C)NCc1nc(-c2ccc3c(c2)OCO3)c[nH]1 | -11.7%
30 | CC(CNC(=O)c1ccon1)Oc1cccc(Br)c1 (stereo not drawn) | 4.03%
31 | Cc1cc(C(=O)NCCc2cn3nc(C)sc3n2)c(C)o1 | -5.61%
32 | CN(Cc1n[nH]c2c1CCCC2)c1nc2c(c(=O)[nH]1)CCNCC2 | -4.95%
33 | c1ccc(CN2Cc3nccn3CC(Cn3cncn3)C2)nc1 (stereo not drawn) | 2.19%
34 | Cc1ccc2c(c1)OCCCC2NC1CCN(C)CC1 (stereo not drawn) | -0.243%
35 | NC(=O)CN1CCC(NC(=O)N2CCCC2c2ccsc2)CC1 (stereo not drawn) | -6.14%
36 | CCc1sc(C(=O)Nc2cnn(CC(=O)NC3CC3)c2)cc1C | -8.41%
37 | NC(=O)c1ccc(OCC(=O)N2CCCC(n3cccn3)C2)cc1 (stereo not drawn) | -12%
38 | CC1CCN(C(CNC(=O)Cn2cccn2)c2cccs2)CC1 (stereo not drawn) | -7.96%
39 | COc1ccc(C(=O)N2CCN(c3cc(CCN)nc(C)n3)CC2)cc1 | -0.395%
40 | Cc1nc(C)n(C2CCCN(C(=O)c3cn4cccnc4n3)C2)n1 (stereo not drawn) | 2.73%
41 | Cc1cc(OCC(=O)NCc2ccc(F)cc2)nnc1C | -6.01%
42 | Cc1cc(F)ccc1N1CCCC(NC(=O)CCCn2ccnc2)C1 (stereo not drawn) | -26%
43 | O=C(CCc1nc2cccnc2[nH]1)NCc1ccncc1 | -19.4%
44 | COCC(=O)N1CC[C@@H](OCC2CC2)[C@@H]1Cc1cccnc1 | 0.787%
45 | CCOc1ccc2[nH]c(=O)c(CN3CCN(S(N)(=O)=O)CC3)cc2c1 | -11.9%
46 | Cn1nnc2c1CCN(CC1CC1)C2COCc1ccccc1 (stereo not drawn) | -6.64%

Row | SMILES | cytotoxicity at 70.5 h
47 | O=C(O)c1ccc(S(=O)(=O)Nc2cnn(CC(F)(F)F)c2)cc1 | 3.28%
48 | Cc1cc(F)cc(S(=O)(=O)Nc2noc(C)n2)c1 | -1.08%
49 | O=C(c1ccco1)N(c1ccc(F)cn1)C1CCOCC1 | 26.4%
50 | COc1cccc(F)c1C(=O)N1C[C@@H](CN(C)CCO)[C@@H](CO)C1 | -8.49%
51 | O=C(Cc1cccs1)N1CC(c2nc(-c3cnccn3)no2)C1 | -6.93%
52 | Cc1ccc(CC(=O)NCC(O)c2cccc(C(F)(F)F)c2)cn1 (stereo not drawn) | -0.0497%
53 | Cc1cnn(CC2CCCN2C(=O)c2cccc(S(C)(=O)=O)c2)c1 (stereo not drawn) | -2.98%
54 | Cc1nc(NCC2CC2)nc2c1COCC21CCN(C)C1 (stereo not drawn) | -3.52%
55 | Cc1nc2n(n1)CC(NCc1ccc(Cl)c3cccnc13)CC2 (stereo not drawn) | -8.23%
56 | Cc1ccc(C2CSCCN2C(=O)c2cnsn2)o1 (stereo not drawn) | -10.7%
57 | Nc1nc(N)c2c(n1)OC1(CCN(C(=O)CC3CCNCC3)CC1)C2 | 8.24%
58 | COCc1nc(C(=O)N2CCCC2c2ccccc2C)cs1 (stereo not drawn) | -1.48%
59 | O=C1NC2(CCN(CCO)CC2)CC1c1ccccc1 (stereo not drawn) | -2.09%
60 | COc1ccccc1N1CCN(C(=O)CSC(C)C)C(C)C1 (stereo not drawn) | -3.04%
61 | CC(C)(NC(=O)Cc1ccccc1F)C(=O)O | -4.89%
62 | CC1=N[C@@]2(CC[C@@H]3CN(C(=O)NC(C)C)C[C@@H]32)C(=O)N1CC(C)C | -3.41%
63 | O=C(Nc1ccccc1)[C@H]1O[C@H](CCN2CCNCC2)CC[C@@H]1O | 0.346%
64 | O=C1NCCN1C1CCCN(Cc2coc(-c3ccc(F)cc3)n2)C1 (stereo not drawn) | 31%
65 | CC(C)N(C)[C@@H]1CCN(C(=O)[C@H]2CCCO2)[C@H]1Cc1cnn(C)c1 | -4.8%
66 | CCN(CC(C)C#N)C(=O)c1cccc(COc2ccc(C)nc2)c1 (stereo not drawn) | -4.47%
67 | Nc1ncccc1C(=O)NCc1ccc(Br)cc1 | -2.61%
68 | CC(C)(C)Oc1ccccc1CNC(=O)C1CCCOC1 (stereo not drawn) | -0.0152%
69 | Cc1oc(NC(=O)C(C)N2CCN(C(=O)C3CC3)CC2)c(C#N)c1C (stereo not drawn) | -1.91%

Row | SMILES | cytotoxicity at 70.5 h
70 | Cc1ccnc2c1NC(=O)CN2C(=O)CCC(F)(F)F | -6.32%
71 | CCOCCCNC(=O)NCc1c(C)nn(C)c1C | 22.3%
72 | COC(=O)C(C)(C)NC(=O)c1cc(COc2ccccc2OC)[nH]n1 | 10.6%
73 | COCCCNC(=O)Nc1ccc(F)c(C(N)=O)c1 | 0.915%
74 | CCc1n[nH]c(C2CN(CCS(C)(=O)=O)CCO2)n1 (stereo not drawn) | -0.712%
75 | Cc1ccccc1CC(=O)N1CCN(C2CCOC2=O)CC1 (stereo not drawn) | -5.25%
76 | CCOc1cc(C)nc(N2CCN(C(=O)c3ccncc3)CC2)n1 | 5.92%
77 | CSCc1noc(-c2ccc(C)c(N3CCNC3=O)c2)n1 | -9.43%
78 | Cc1cc(N2CCCC2Cn2nc(C)cc2C)n2ncnc2n1 (stereo not drawn) | 29%
79 | CC(CNC(=O)Nc1ccc(F)cc1-n1cccc1)N1CCOCC1 (stereo not drawn) | 4.4%
80 | O=C1CCCCN1CC(=O)N1CCCC(c2ccccc2)C1 (stereo not drawn) | -20.6%
81 | Fc1ccc(C2(NCc3noc(C4CC4)n3)CCC2)cc1 | 8.34%
82 | Cc1nc(CO[C@H]2CN(Cc3ccccn3)[C@@H]3CCCO[C@H]23)cs1 | 6.92%
83 | COCc1cc(CNC(=O)c2cc(NC(C)=O)ccc2Cl)n[nH]1 | -6.43%
84 | O=C(c1cccc(NCCOc2ccc(F)cc2)c1)N1CCOCC1 | 4.98%
85 | CCOCCC(=O)NCC1CCCO1 (stereo not drawn) | -6.72%
86 | CC1(C)[C@H](Cc2cc(CN3CCCCC3)on2)C[C@@H]1NS(C)(=O)=O | -4.26%
87 | CCC(C)N(Cc1ccncc1)Cc1ccc(-n2cccn2)cc1 (stereo not drawn) | -5.94%
88 | CCn1c(N)nc2cc(C(=O)N3CCCOCC3)cnc21 | -6.56%
89 | CC[C@@H]1N(CC2CCC2)CCC[C@]12CCC(=O)N2Cc1ccncc1 | -4.74%
90 | CC(C)N(C)Cc1cn2c(n1)CN(Cc1ccsc1)CC2 | 10.4%
91 | CC(C)c1nc(CCNC(=O)NCc2ccnc(N(C)C)c2)cs1 | -10.2%
92 | Cn1cc(CN2C[C@H]3CCN(C(=O)c4cscn4)C[C@H]3C2)cn1 | 27.4%

Row | SMILES | cytotoxicity at 70.5 h
93 | Cc1cc(C)n2nc(C(=O)N[C@H]3C[C@H]4CN(C)CCN4C3)cc2n1 | -6.02%
94 | CCN1CCN(C)C2(CCN(C(=O)CC(F)(F)F)CC2)C1=O | 0.29%
95 | CCCS(=O)(=O)CC(=O)Nc1cc(CC(C)(C)C)n[nH]1 | -0.508%
96 | COc1ccccc1CC(=O)N1CCCC1Cn1nc(C)cc1C (stereo not drawn) | -2.44%
97 | CO[C@H]1C[C@@H](O)C12CCN(Cc1nc(C(F)(F)F)no1)CC2 | -10.9%
98 | Cc1cc(CNC(=O)NC(C)c2ccncc2)no1 (stereo not drawn) | -9.9%
99 | CCc1nnc(C(C)N2CCC(NC(=O)C3CCCCC3)CC2)o1 (stereo not drawn) | -7.39%
100 | CC(C)c1cc(N2CCC(NS(C)(=O)=O)CC2)n2nccc2n1 | -2.38%
101 | Cc1noc2nc(C3CCCN(Cc4cccnc4)C3)cc(C(F)F)c12 (stereo not drawn) | -3.71%
102 | O=C1CN(C(=O)c2cccc(C(F)(F)F)c2)CC(O)CN1CC1CC1 (stereo not drawn) | 20.9%
103 | Cc1cs/c(=N\C(=O)Cn2nc(N3CCC(C)CC3)ccc2=O)[nH]1 | -9.83%
104 | CC(C)c1noc(CN2CCCN(Cc3cccs3)CC2)n1 | -25.6%
105 | CC(NC(=O)NCCCN1CCCC1=O)c1nncn1C (stereo not drawn) | -9.31%
106 | COc1ccccc1CNC(=O)N1CCCC(CO)C1 (stereo not drawn) | 11.7%
107 | COc1cccc(C(=O)N2C[C@@H](CN(C)CCO)[C@@H](CO)C2)c1C | 23.8%
108 | CC(C)c1nc2n(n1)CC(NCc1nc(-c3ccccn3)no1)CC2 (stereo not drawn) | -7.49%
109 | NC(=O)COc1cccc(C(=O)Nc2cnc3n2CCCC3)c1 | -5.66%
110 | CCN(Cc1cnn(C)c1)C[C@H]1CC[C@@H](Cc2ccc(CO)cc2)O1 | -3.31%
111 | CC(=O)N1N=C(c2cccs2)OC1C(=O)NCCc1cccc(Cl)c1 (stereo not drawn) | 28.8%
112 | CCn1c(C(=O)N2CCCN(CC(N)=O)CC2)cc2ccccc21 | -3.29%
113 | Cc1cccc(=O)n1CCC(=O)N1CCC2(CC1)OCCCC2O (stereo not drawn) | -3.41%
